≈ marks a conversion by molar mass, not a printed value.
Assays:
Escherichia coli = experiment: Bactericidal activity in vitro in LB agar medium; assay type: cell-based; conditions: Escherichia sp., 37° C., read-out: MIC (concentration needed to completely inhibit the growth of the bacteria)
Method: (§1) The bactericidal activity of eugenol and isoeugenol was evaluated in vitro and compared with that of other terpenes.
(§2) The culture medium used is the following LB medium:
(§3) Bactotryptone: 1% by weight
(§4) Yeast extract: 0.5% by weight
(§5) A suspension of bacteria at 10^6 CFU/ml was prepared in sterilized water from the LB medium. 200 μl of this bacterial suspension were added to 20 ml of presterilized LB culture medium brought to 55° C. The tested terpene is then added to the culture medium. After agitation, the medium is immediately divided among Petri dishes. The medium solidifies on cooling.
(§6) Incubation is carried out at 28° C. when the bacterium is Erwinia carotovora and at 37° C. when the bacterium is Escherichia coli.
(§7) The growth of mould in the culture medium is observed. The same experiment is carried out in the absence of terpene (control experiment).
(§8) The protocol used is that described above.

Erwinia carotovora = experiment: Bactericidal activity in vitro in LB agar medium; assay type: cell-based; conditions: 28° C.; for MIC: Pectobacterium carotovorum, Erwinia sp., read-out: MIC (concentration needed to completely inhibit the growth of the bacteria)
Method: as §1, §2, §3, §4, §5, §6, §7
The results are evaluated using the following assessment scale:
++: mould growth identical to the control
+: mould present with a marked reduction in growth with respect to the control
: complete absence of growth.
The results obtained for 3 different concentrations, namely 20, 80 and 320 μg/ml, in the case of the bacterium Erwinia carotovora are summarized in Table 7.
as §8

[1] = tested on: species of fungus (AA, BC, FO, GC, GR, PD, PE, PV, PhP); experiment: Fungicidal activity in vitro: total of inhibition grades over the nine species of fungus; assay type: cell-based; conditions: sum of the grades over the nine fungi
Method: (§9) The Cristomalt medium used for the evaluations of the fungicidal activities comprises 0.1% of Cristomalt (malt extract) and 0.2% of agar.
(§10) This culture medium is, after sterilization, brought to 55° C. The terpene compound tested is then introduced in the pure form into the culture medium under warm conditions. Immediately after agitating, the medium, enriched with the terpene product, is poured into Petri dishes (diameter 9 cm, filled with 20 ml of medium). The agar-comprising medium solidifies on cooling. The Petri dishes are then inoculated with plugs, with a diameter of 6 mm, withdrawn from the edge of a culture of the tested fungus, which culture is obtained on Cristomalt medium.
(§11) Inoculation is carried out at 22° C.
(§12) The mycelial growth was determined periodically (5 to 15 days, according to the species of fungus).
The results obtained are analysed simply by using the assessment scale illustrated in Table 2:
The results obtained have been expressed in Table 3 using the scale in Table 2.

Alternaria alternata = experiment: Fungicidal activity in vitro: mycelial growth on Cristomalt agar; assay type: cell-based; conditions: AA; for Inhibition grades: MIC expressed on the scale of Table 2; for MIC: Alternaria alternata, min-max range of several experiments, 22° C., read-out: MIC (content giving complete inhibition of mycelial growth)
Method: as §9, §10, §11, §12
(§13) The results are expressed in Table 3 below in terms of MIC, which is the content (in μg/ml) which makes it possible to obtain complete inhibition of mycelial growth.
(§14) In f act, each experiment was carried out several times, so that, for each terpene and for each species of fungus, a minimum value and a maximum value were obtained.

Geocrichum candidum = experiment: as above; assay type: cell-based; conditions: GC; for Inhibition grades: MIC expressed on the scale of Table 2; for MIC: min-max range of several experiments, 22° C., read-out: MIC (content giving complete inhibition of mycelial growth)
Method: as §9, §10, §11, §12, §13, §14

Phytophtora parasitica = experiment: as above; assay type: cell-based; conditions: PhP; for Inhibition grades: MIC expressed on the scale of Table 2; for MIC: min-max range of several experiments, 22° C., read-out: MIC (content giving complete inhibition of mycelial growth)
Method: as §9, §10, §11, §12, §13, §14

Penicillium digitatum = experiment: as above; assay type: cell-based; conditions: PD; for Inhibition grades: MIC expressed on the scale of Table 2; for MIC: Penicillium digitatum, min-max range of several experiments, 22° C., read-out: MIC (content giving complete inhibition of mycelial growth)
Method: as §9, §10, §11, §12, §13, §14

Fusarium oxysporum = experiment: as above; assay type: cell-based; conditions: for MIC: Fusarium oxysporum, FO, min-max range of several experiments, 22° C., read-out: MIC (content giving complete inhibition of mycelial growth); for Inhibition grades: OF, MIC expressed on the scale of Table 2
Method: as §9, §10, §11, §12, §13, §14

Gliocladium roseum = experiment: as above; assay type: cell-based; conditions: GR; for MIC: Clonostachys rosea, min-max range of several experiments, 22° C., read-out: MIC (content giving complete inhibition of mycelial growth); for Inhibition grades: MIC expressed on the scale of Table 2
Method: as §9, §10, §11, §12, §13, §14

Botrytis cinerea = experiment: as above; assay type: cell-based; conditions: BC; for Inhibition grades: MIC expressed on the scale of Table 2; for MIC: Botrytis cinerea, min-max range of several experiments, 22° C., read-out: MIC (content giving complete inhibition of mycelial growth)
Method: as §9, §10, §11, §12, §13, §14

[2] = tested on: Phlyctaena vagabonda (“Gloeosporium”); experiment: as above; assay type: cell-based; conditions: PV; for Inhibition grades: MIC expressed on the scale of Table 2; for MIC: min-max range of several experiments, 22° C., read-out: MIC (content giving complete inhibition of mycelial growth)
Method: as §9, §10, §11, §12, §13, §14

Penicillium expansum = experiment: as above; assay type: cell-based; conditions: PE; for Inhibition grades: MIC expressed on the scale of Table 2; for MIC: Penicillium expansum, min-max range of several experiments, 22° C., read-out: MIC (content giving complete inhibition of mycelial growth)
Method: as §9, §10, §11, §12, §13, §14

potato tubers = experiment: Sprouting-inhibiting treatment of potato tubers by thermal fogging; assay type: in vivo; conditions: after 5 months; cold room 8 to 9° C.; 45 g/tonne then 15 g/tonne every 20 days by thermal fogging
Method: The effectiveness of eugenol and of isoeugenol in the sprouting-inhibiting treatment of potato tubers was evaluated and compared with that of other terpenes.
The following compositions were used in the case of eucalyptol, eugenol, isoeugenol, limonene, safrole and terpineol:
60% by weight of terpene;
7% by weight of a nonionic emulsifier;
33% by weight of butyl acetate.
In the case of L-carvone, the following composition was employed:
30% by weight of L-carvone;
10% by weight of ethanol;
5% by weight of nonionic emulsifier;
35% by weight of propylene glycol.
Isopropyl chlorophenylcarbamate (CIPC) is a compound used in the art as sprouting inhibitor for potato tubers. Its activity was compared with that of eugenol and of isoeugenol.
The composition based on isopropyl chloro-phenylcarbamate has the following formulation: […]
20% by weight of isopropyl chlorophenyl-carbamate;
50% by weight of propylene glycol;
10% by weight of nonionic emulsifier;
Each of the compositions tested was applied by thermal fogging. The temperature at the outlet of the thermal fogging device was 240° C., except in the case of the compositions based on L-carvone and on CIPC, where it was 180° C.
The amount of composition which has to be applied is calculated in each case so as to obtain an equivalent concentration of active material on the potato tubers.
In this example, repeated applications were carried out by following the following protocol:
45 g/tonne of tubers at the beginning of storage;
15 g/tonne of tubers every 20 days; so that, after 6 months, 165 g of active principle have been applied per tonne of tubers.
During storage, the tubers were stored in a cold room at a temperature of 8 to 9° C.

| Compound | MIC (Escherichia coli) [µg/mL] | growth in the culture medium with respect to the control (Erwinia carotovora; Concentration 20 μg/ml) | growth in the culture medium with respect to the control (Erwinia carotovora; Concentration 80 μg/ml) | growth in the culture medium with respect to the control (Erwinia carotovora; Concentration 320 μg/ml) | MIC (Erwinia carotovora) [µg/mL] | Total of the degrees of inhibition [1] | Inhibition grades (Alternaria alternata) | MIC (Alternaria alternata) [µg/mL] | Inhibition grades (Geocrichum candidum) | MIC (Geocrichum candidum) [µg/mL] | Inhibition grades (Phytophtora parasitica) | MIC (Phytophtora parasitica) [µg/mL] | Inhibition grades (Penicillium digitatum) | MIC (Penicillium digitatum) [µg/mL] | MIC (Fusarium oxysporum) [µg/mL] | Inhibition grades (Fusarium oxysporum) | MIC (Gliocladium roseum) [µg/mL] | Inhibition grades (Gliocladium roseum) | Inhibition grades (Botrytis cinerea) | MIC (Botrytis cinerea) [µg/mL] | further results |
| --- | --- | --- | --- | --- | --- | --- | --- | --- | --- | --- | --- | --- | --- | --- | --- | --- | --- | --- | --- | --- | --- |
| C=C(C)C1CC=C(C)C(=O)C1 (stereo not shown) [CARVONE, carvone] | 320 to 640 (≈ 2130 to 4260 µM) | ++ | + | − | 80 to 160 (≈ 533 to 1070 µM) | 52 | 6 (40-80) | 40 to 80 (≈ 266 to 533 µM) | 5 (80-160) | 80 to 160 (≈ 533 to 1070 µM) | 6 (40-80) | 40 to 80 (≈ 266 to 533 µM) | 6 (40-80) | 40 to 80 (≈ 266 to 533 µM) | 40 to 80 (≈ 266 to 533 µM) | 6 (40-80) | 40 to 80 (≈ 266 to 533 µM) | 6 (40-80) | 7 (20-40) | 20 to 40 (≈ 133 to 266 µM) | Inhibition grades [2]: 5 (80-160); MIC [2]: 80 to 160 µg/mL (≈ 533 to 1070 µM); Inhibition grades (Penicillium expansum): 5 (80-160); MIC (Penicillium expansum): 80 to 160 µg/mL (≈ 533 to 1070 µM) |
| CC12CCC(CC1)C(C)(C)O2 [EUCALYPTOL, eucalyptol] | > 640 | ++ | ++ | ++ | 320 to 640 (≈ 2070 to 4150 µM) | 20 | 1 (>1280) | > 1280 | 3 (320-640) | 320 to 640 (≈ 2070 to 4150 µM) | 3 (320-640) | 320 to 640 (≈ 2070 to 4150 µM) | 1 (>1280) | > 1280 | 640 to 1280 (≈ 4150 to 8300 µM) | 2 (640-1280) | 320 to 640 (≈ 2070 to 4150 µM) | 3 (320-640) | 2 (640-1280) | 640 to 1280 (≈ 4150 to 8300 µM) | Loss in weight of the tubers (potato tubers): 3.2%; Total weight of the sprouts >2 mm (potato tubers): 46.2 g; Tubers at the white point stage (potato tubers): 10.2%; Tubers with sprouts 2 to 5 mm (potato tubers): 36.3%; Tubers with sprouts <2 mm (potato tubers): 26.7%; Tubers with sprouts >2 mm (potato tubers): 58.4%; Tubers with sprouts >5 mm (potato tubers): 22.4%; Unsprouted tubers (potato tubers): 4.4%; Inhibition grades [2]: 4 (160-320); MIC [2]: 160 to 320 µg/mL (≈ 1040 to 2070 µM); Inhibition grades (Penicillium expansum): 1 (>1280); MIC (Penicillium expansum): > 1280 µg/mL |
| C=CCc1ccc(O)c(OC)c1 [EUGENOL, eugenol] | 40 to 80 (≈ 244 to 487 µM) | + | − | − | 20 to 40 (≈ 122 to 244 µM) | 63 | 7 (20-40) | 20 to 40 (≈ 122 to 244 µM) | 8 (10-20) | 10 to 20 (≈ 60.9 to 122 µM) | 7 (20-40) | 20 to 40 (≈ 122 to 244 µM) | 7 (20-40) | 20 to 40 (≈ 122 to 244 µM) | 20 to 40 (≈ 122 to 244 µM) | 7 (20-40) | 20 to 40 (≈ 122 to 244 µM) | 7 (20-40) | 7 (20-40) | 20 to 40 (≈ 122 to 244 µM) | Loss in weight of the tubers (potato tubers): 2.6%; Total weight of the sprouts >2 mm (potato tubers): 3.6 g; Tubers at the white point stage (potato tubers): 45.3%; Tubers with sprouts 2 to 5 mm (potato tubers): 6.2%; Tubers with sprouts <2 mm (potato tubers): 35.2%; Tubers with sprouts >2 mm (potato tubers): 12.0%; Tubers with sprouts >5 mm (potato tubers): 5.8%; Unsprouted tubers (potato tubers): 7.5%; Inhibition grades [2]: 6 (40-80); MIC [2]: 40 to 80 µg/mL (≈ 244 to 487 µM); Inhibition grades (Penicillium expansum): 7 (20-40); MIC (Penicillium expansum): 20 to 40 µg/mL (≈ 122 to 244 µM) |
